Reference: ChEMBL document CHEMBL1154198, “Chemical genetics of Plasmodium falciparum” (Nature, 2010)

How the values were obtained:
Plasmodium falciparum [1] = experiment: ST_JUDE: Plasmodium falciparum 3D7 EC50 (uM) as measured by SYBR green dye; format: functional, organism-based
Plasmodium falciparum [2] = experiment: ST_JUDE: Plasmodium falciparum K1 EC50 (uM) as measured by SYBR green dye; format: functional, organism-based

| Compound | EC50 (Plasmodium falciparum [1]) | EC50 (Plasmodium falciparum [2]) |
| --- | --- | --- |
| Cc1ccc2nc(Nc3nc(O)c4ccccc4n3)nc(C)c2c1 | 6.29 µM | 4.56 µM |
| O=C(NC(c1cccc([N+](=O)[O-])c1)c1cc(Cl)c2cccnc2c1O)c1cccnc1 (stereo not drawn) | 4.65 µM | 2.73 µM |
| Cc1[nH]c2c(-c3ccc(Cl)cc3)cnn2c(=O)c1Cc1ccccc1 | 6.84 µM | 6.88 µM |
| CCOc1ccc(N2C(N)=NC(N)=NC2(C)C)cc1 | 0.238 µM | > 15 µM |
| CCOc1ccc(-c2nonc2NC(=O)CC(C)C)cc1OCC | 3.14 µM | 3.78 µM |
| O=C(Nc1ccccc1-c1nc2ccccc2s1)C(Cl)(Cl)Cl | > 15 µM | 2.69 µM |
| CCCCCCCCn1ccc(=N)cc1 | 2.18 µM | 1.41 µM |
| Cc1cc(Nc2ccc(C)c(F)c2)n2nc(C)nc2n1 | 1.29 µM | 3.09 µM |
| COc1ccc2c(c1)C(=NN=C(N)N)c1cc(OC)ccc1-2 | 0.506 µM | 1.01 µM |
| CN1C=CC(=Cc2sc3ccccc3[n+]2C)C=C1 | 0.873 µM | 0.389 µM |
| O=C1CC(C(=O)N2CCC(c3nc(-c4cccnc4)ncc3-c3ccccc3)CC2)c2ccccc21 (stereo not drawn) | 2.73 µM | 4.09 µM |
| OCCNc1nc(Nc2ccc(Cl)cc2)nc2ccccc12 | 1.02 µM | 3.2 µM |
| O=C(Cc1cccc(F)c1)N1CCC(=O)N(CC2CC2)CC1 | > 15 µM | > 15 µM |
| Cc1ccc(C(C)C)c(OCc2nc3ccccc3n2C)c1 | > 15 µM | > 15 µM |
| CCc1ccc(NC(=O)C2c3cc(OC)c(OC)cc3C(=O)N(C)C2c2cccs2)cc1 (stereo not drawn) | 3.54 µM | 3.8 µM |
| COc1cccc(C2C(C(=O)Nc3ccccc3C)=C(C)Nc3nnnn32)c1 (stereo not drawn) | > 15 µM | > 15 µM |
| O=C1CC(O)(C(F)(F)C(F)(F)F)Oc2ccccc21 (stereo not drawn) | 2.57 µM | 2.48 µM |
| Cc1ccccc1NC(=O)Nc1ccnn1C1CCN(Cc2ccc(OC(C)C)cc2)CC1 | 6.74 µM | > 15 µM |
| CCOC(=O)c1ccc(NC(=O)c2cc([N+](=O)[O-])ccc2NC(=O)CNC2CCN(Cc3ccccc3)CC2)cc1 | 1.27 µM | 3.68 µM |
| CC(=O)OCCCCCCCCCCC[N+]1(C)CCCCC1 | > 15 µM | 5.48 µM |
| CC(C)(C)c1ccc(O)c(CN2CCN(c3ccccc3)CC2)c1 | 1.1 µM | 0.51 µM |

| Compound | EC50 (Plasmodium falciparum [1]) | EC50 (Plasmodium falciparum [2]) |
| --- | --- | --- |
| Cc1ccc(CN2c3ccccc3C(O)=C(/C=N/c3ccc4c(c3)N3CCN=C3S4)S2(=O)=O)cc1 | 2.18 µM | > 15 µM |
| Oc1ccc(I)cc1/C=C/c1cc(O)c2ccccc2n1 | > 15 µM | 5.34 µM |
| S=C(N/N=C(/c1ccccc1)c1ccccn1)Nc1ccccc1 | 0.317 µM | 0.48 µM |
| CCN1CCN(CCNC(=O)c2ccc(/C=C3/Sc4ccccc4N(Cc4cccc(Cl)c4)C3=O)cc2)CC1 | > 15 µM | > 15 µM |
| CCOc1ccccc1C(=O)Nc1cc2c3c(c1)CCN3C(=O)CC2 | > 15 µM | > 15 µM |
| C=CCn1c(=N)n(CC(O)COc2cccc(C)c2)c2ccccc21 (stereo not drawn) | 7.13 µM | > 15 µM |
| CN(C)CCNC(=O)c1[nH]c2ccccc2c1Sc1ccc(Cl)cc1 | 4.53 µM | 3.5 µM |
| CCN(CC)CCNC(=O)c1cc2c(-c3cccc(OC)c3)nn(C)c2s1 | 4.04 µM | > 15 µM |
| Cc1ccccc1-c1cnc(-c2cccnc2)nc1C1CCN(C(=O)CCCc2cccs2)CC1 | 5.76 µM | 4.53 µM |
| Cn1c(-c2ccc(F)cc2)[n+](C)c2ccccc21 | 1.88 µM | 3.79 µM |
| COC(=O)Nc1ccc(S(=O)(=O)ON=C2C=C(C(C)(C)C)C(=O)C(C(C)(C)C)=C2)cc1 | 6.84 µM | 0.389 µM |
| Cc1cc(O)nc(Nc2nc(C)c3cccc(C)c3n2)n1 | > 15 µM | > 15 µM |
| CCOC(=O)c1cccc(NC(=O)CC2C(=O)N(c3ccc(F)cc3)C(=O)N2C2CCCC2)c1 (stereo not drawn) | 0.344 µM | 0.984 µM |
| CC(=O)c1cccc(CN2CCN(CC(C)C)C(CCO)C2)c1 (stereo not drawn) | > 15 µM | > 15 µM |
| Cc1ccc(Nc2cc(C)nc(Nc3ccc(NS(=O)(=O)c4cccc(F)c4)cc3)n2)cc1 | 1.24 µM | > 15 µM |
| COc1ccc2cc(C(=O)C3CCCN(C4CCN(C(C)C)CC4)C3)ccc2c1 (stereo not drawn) | 7.92 µM | > 15 µM |
| Cc1cccc(N2COc3ccc(C(C)(C)C)cc3C2)c1 | > 15 µM | > 15 µM |
| CC(C)CN(CC(C)C)S(=O)(=O)c1ccc(C(=O)Nc2nc(-c3ccccn3)cs2)cc1 | > 15 µM | 3.28 µM |
| COc1ccc(Nc2cc(C)nc(Nc3ccc(NS(=O)(=O)c4cccc(C)c4)cc3)n2)cc1 | 1.99 µM | > 15 µM |
| CCCCc1ccc(NC(=O)Cc2csc(NC(=O)c3cc(OC)cc(OC)c3)n2)cc1 | > 15 µM | > 15 µM |
| COc1ccc(C2CC3=NC(C)=C(C(=O)OCC(C)C)C(c4ccc(F)cc4)C3=C(O)C2)cc1 (stereo not drawn) | 2.7 µM | 3.01 µM |

| Compound | EC50 (Plasmodium falciparum [1]) | EC50 (Plasmodium falciparum [2]) |
| --- | --- | --- |
| Oc1ccc(Nc2nc(-c3ccccc3)c3cc(Br)ccc3n2)cc1 | > 15 µM | 3.05 µM |
| CC(NC(=S)Nc1cccc([N+](=O)[O-])c1)c1ccc(C(C)(C)C)cc1 (stereo not drawn) | > 15 µM | 6.22 µM |
| CCOC(=O)c1ccc(Nc2nc3nonc3nc2O)cc1 | > 15 µM | > 15 µM |
| CCc1c(C)nc(-n2nc(C)cc2NC(=O)c2ccccc2I)nc1O | > 15 µM | > 15 µM |
| Oc1ccc(Br)c2c1NC(c1ccc(Cl)cc1)C1CC=CC21 (stereo not drawn) | 3.89 µM | 1.57 µM |
| C[n+]1ccccc1/C=C/c1ccc(Br)cc1 | 1.4 µM | 1.46 µM |
| CCCOC(=O)c1ccc(NC(=O)NC2CCCCC2)cc1 | > 15 µM | > 15 µM |
| CCN(C(=O)c1cc2cc3ccc(OC)cc3nc2o1)c1ccc(F)cc1 | > 15 µM | > 15 µM |
| Cc1cccc(NC(=O)CSc2nc3c4ccccc4nc-3c(O)n2-c2ccc([N+](=O)[O-])cc2)c1 | > 15 µM | 4.68 µM |
| CCOC(=O)C1=C(C)N=c2s/c(=C\c3cc(Cl)ccc3O)c(=O)n2C1c1ccc(OC)cc1 (stereo not drawn) | > 15 µM | > 15 µM |
| Cc1ccc(N2C(=O)CC(Sc3nccc(C)n3)C2=O)cc1 (stereo not drawn) | > 15 µM | > 15 µM |
| CCOc1ccc(N(C(C)=O)C2=C(N3CCCCC3)C(=O)c3ccccc3C2=O)cc1 | 0.542 µM | > 15 µM |
| CC(Cc1ccccc1)NC1=NS(=O)(=O)c2cc([N+](=O)[O-])ccc21 (stereo not drawn) | 1.58 µM | > 15 µM |
| CCc1ccc(C2C(C#N)=C(N)N(c3cccc(Cl)c3)C3=C2C(=O)CCC3)s1 (stereo not drawn) | > 15 µM | > 15 µM |
| CCOC(=O)c1ccc2nc(C)cc(Nc3ccc(N(C)C)cc3)c2c1 | 2.85 µM | 3.81 µM |
| CC(C)Cc1cc(C(=O)NCC2Cc3cc(Cl)cc(-c4ccncc4)c3O2)no1 (stereo not drawn) | > 15 µM | 6.45 µM |
| CCN(CC)c1cc(C)c2cc(NC(=O)c3cccc([N+](=O)[O-])c3)ccc2n1 | 0.59 µM | > 15 µM |
| CCCOc1ccc(Oc2nc(NCC)nc(OC)n2)nn1 | 1.87 µM | 4.24 µM |
| CCOCCn1c(CN(Cc2ccccc2)Cc2ccccc2)nc2c1c(=O)n(C)c(=O)n2C | > 15 µM | > 15 µM |
| Cc1sc(NC(=O)CSc2ccc(Cl)cc2)nc1-c1ccccc1 | > 15 µM | > 15 µM |
| COCCn1c(SCC(=O)Nc2cccc(F)c2)nc2c(c1=O)SC(C)C2 (stereo not drawn) | > 15 µM | > 15 µM |

| Compound | EC50 (Plasmodium falciparum [1]) | EC50 (Plasmodium falciparum [2]) |
| --- | --- | --- |
| COc1ccc(C2C3=C(O)CC(c4ccccc4)CC3=NC(C)=C2C(=O)OCC(C)C)cc1OC (stereo not drawn) | > 15 µM | 3.92 µM |
| N#Cc1ccc(Cn2c(=O)n(CCCC(=O)NCc3ccccc3)c(=O)c3sccc32)cc1 | > 15 µM | > 15 µM |
| COc1ccc(NC(=O)Cn2ncc3c(=O)oc4ccc(C)cc4c32)cc1 | > 15 µM | > 15 µM |
| CCOc1cc(C2CC(=O)NC3=C2C(=O)CC(c2ccc(OC)cc2)C3)cc(Br)c1O (stereo not drawn) | 1.13 µM | 1.53 µM |
| COc1cccc(Nc2nc(NCC3CCCO3)c3ccccc3n2)c1 (stereo not drawn) | 1.06 µM | 1.72 µM |
| O=C(Nc1ccc(-c2nc3ccccc3[nH]2)cc1)[C@H](Cc1ccccc1)N1Cc2ccccc2C1=O | 2.56 µM | > 15 µM |
| COc1cccc(C(=O)NC(c2ccc([N+](=O)[O-])cc2)c2c(O)ccc3ccccc23)c1 (stereo not drawn) | > 15 µM | 5.25 µM |
| COc1ccc(OC)c(Nc2nc(NCCO)c3ccccc3n2)c1 | > 15 µM | > 15 µM |
| COC(=O)c1c(S(=O)(=O)N2CCCCCC2)sc2c1CCN(Cc1ccc(F)c(OC)c1)C2 | > 15 µM | > 15 µM |
| NS(=O)(=O)c1ccc(NC(=O)Cc2ccc([N+](=O)[O-])cc2)cc1 | > 15 µM | > 15 µM |
| O=[N+]([O-])c1cccc(C2Nc3ccccc3-c3nc4ccccc4n32)c1 (stereo not drawn) | 3.69 µM | 4.27 µM |
| Cc1ccc(NC(=O)C2c3ccccc3C(=O)N(CC(C)C)C2c2cccs2)nc1 (stereo not drawn) | 1.32 µM | 1.43 µM |
| COc1ccc(C2C(C(=O)OC(C)C)=C(C)N=c3s/c(=C\c4cc(Cl)ccc4O)c(=O)n32)cc1 (stereo not drawn) | 7 µM | 0.331 µM |
| CCOC(=O)C(C)Sc1nc2ccccc2c(=O)n1CC1CCCCC1 (stereo not drawn) | > 15 µM | > 15 µM |
| Cc1ccc(S(=O)(=O)N(CC(=O)N2CCCCCC2)Cc2ccc(Cl)cc2)cc1 | > 15 µM | > 15 µM |
| CCC1CCCCN1CCCNC(=O)c1ccc2c(c1)sc1nc(-c3ccc(F)cc3)cn12 (stereo not drawn) | 0.463 µM | 1.3 µM |
| COCCn1/c(=N/C(=O)CSCC(=O)Nc2cc(C)on2)sc2cc(OC)ccc21 | > 15 µM | > 15 µM |
| CCCCCC/N=C1\CC(C)(C)CC(O)=C1C(=O)CCCN1C(=O)c2ccccc2C1=O | > 15 µM | > 15 µM |
| CN(C)c1ccc(C(O)(c2ccc(N(C)C)cc2)c2ccc(N(C)C)cc2)cc1 [METHYLROSANILINE] | 0.62 µM | 0.178 µM |
| O=C(N/N=C/c1ccc([N+](=O)[O-])o1)c1ccc(O)cc1 [NIFUROXAZIDE] | > 15 µM | 3.77 µM |
| O=C(CCCCCN1C(=O)c2cccc3cccc(c23)C1=O)NO [SCRIPTAID] | 3.78 µM | 2.22 µM |
